What was measured:
[1] = tested on: antibodies in sera from SARS patients (sera 1a, 1b, 2, 6, 37, 62, London, SARS-yellow, SARS-green); type: binding, human; set-up: Binding of serum 6 to linear peptides of protein X1 of SARS-CoV Urbani / Binding of serum 37 to linear peptides of protein X1 of SARS-CoV Urbani / Binding of serum 6 to looped/cyclic peptide (PEPSCAN-ELISA) / Binding of serum 37 to looped/cyclic peptide (PEPSCAN-ELISA) / Binding of serum 37 to looped/cyclic peptides of protein X1 of SARS-CoV Urbani / Binding of serum 6 to linear peptides of protein X2 / Binding of serum 37 to linear peptides of protein X2 / Binding of serum 37 to looped/cyclic peptides of protein X2 of SARS-CoV Urbani / Binding of serum 6 to linear peptides of protein M of SARS-CoV Urbani / Binding of serum 37 to linear peptides of protein M of SARS-CoV Urbani / Binding of serum 6 to looped/cyclic peptides of protein M of SARS-CoV Urbani / Binding of serum 37 to looped/cyclic peptides of protein M of SARS-CoV Urbani / Binding of serum 6 to linear peptides of protein X3 of SARS-CoV Urbani / Binding of serum 37 to linear peptides of protein X3 of SARS-CoV Urbani / Binding of serum 37 to looped/cyclic peptides of protein X3 of SARS-CoV Urbani / Binding of serum 6 to linear peptides of protein X4 of SARS-CoV Urbani / Binding of serum 37 to linear peptides of protein X4 of SARS-CoV Urbani / Binding of serum 37 to looped/cyclic peptides of protein X4 of SARS-CoV Urbani / Binding of serum 6 to linear peptides of protein X5 of SARS-CoV Urbani / Binding of serum 37 to linear peptides of protein X5 of SARS-CoV Urbani / Binding of serum 37 to looped/cyclic peptides of protein X5 of SARS-CoV Urbani / Binding of serum 6 to linear peptides of protein N of SARS-CoV Urbani / Binding of serum 37 to linear peptides of protein N of SARS-CoV Urbani / Binding of serum 6 to linear peptide (PEPSCAN-ELISA) / Binding of serum 1a to looped/cyclic peptides of protein N of SARS-CoV Urbani / Binding of serum 1b to looped/cyclic peptides of protein N of SARS-CoV Urbani / Binding of serum 2 to looped/cyclic peptides of protein N of SARS-CoV Urbani / Binding of serum 6 to looped/cyclic peptides of protein N of SARS-CoV Urbani / Binding of serum 37 to looped/cyclic peptides of protein N of SARS-CoV Urbani / Binding of serum 62 to looped/cyclic peptides of protein N of SARS-CoV Urbani / Binding of serum London to looped/cyclic peptides of protein N of SARS-CoV Urbani / Binding of serum SARS-green to looped/cyclic peptides of protein N of SARS-CoV Urbani: unit not given here
[2] = tested on: rabbit serum obtained by immunizing a rabbit with the SARS-CoV strain Frankfurt 1; type: binding; set-up: Binding of a rabbit serum to linear peptides / Binding of a rabbit serum to looped peptides / Rabbit serum linear peptides / Rabbit serum looped peptides / Binding of a rabbit serum to linear peptides of protein N of SARS-CoV Urbani (Rabbit serum linear peptides) / Binding of a rabbit serum to looped/cyclic peptides of protein N of SARS-CoV Urbani (Rabbit serum looped peptides): unit not given here
[3] = tested on: control sera (pooled serum of ten healthy LUMC hospital workers; commercial negative donor pooled serum from the Dutch bloodbank); type: binding, human; set-up: Binding of Control serum LUMC to linear peptides / Binding of Control serum Blood-bank to linear peptides / Binding of Control serum LUMC to looped peptides / Binding of Control Serum Blood-Bank to Looped peptides / Binding of Control serum LUMC to linear peptides of the protein M of SARS-CoV Urbani / Binding of Control serum Blood-bank to linear peptides of the protein M of SARS-CoV Urbani / Binding of Control serum LUMC to looped peptides of the protein M of SARS-CoV Urbani / Binding of Control Serum Blood-Bank to Looped peptides of the protein M of SARS-CoV Urbani: unit not given here

Row | Sequence | Binding of serum 1a to linear peptides of protein X4 of SARS-CoV Urbani [1] | Binding of serum 1a to looped/cyclic peptides of protein X4 of SARS-CoV Urbani [1] | Binding of serum 1b to linear peptides of protein X4 of SARS-CoV Urbani [1] | Binding of serum 1b to looped/cyclic peptides of protein X4 of SARS-CoV Urbani [1] | Binding of serum 2 to linear peptides of protein X4 of SARS-CoV Urbani [1] | Binding of serum 2 to looped/cyclic peptides of protein X4 of SARS-CoV Urbani [1] | Binding of serum 6 to linear peptides of protein X4 of SARS-CoV Urbani [1] | Binding of serum 6 to looped/cyclic peptides of protein X4 of SARS-CoV Urbani [1] | Binding of serum 37 to linear peptides of protein X4 of SARS-CoV Urbani [1] | Binding of serum 37 to looped/cyclic peptides of protein X4 of SARS-CoV Urbani [1] | Binding of serum 62 to linear peptides of protein X4 of SARS-CoV Urbani [1] | Binding of serum 62 to looped/cyclic peptides of protein X4 of SARS-CoV Urbani [1] | Binding of serum London to linear peptides of protein X4 of SARS-CoV Urbani [1] | Binding of serum London to looped/cyclic peptides of protein X4 of SARS-CoV Urbani [1] | Binding of serum SARS-green to linear peptides of protein X4 of SARS-CoV Urbani [1] | Binding of serum SARS-green to looped/cyclic peptides of protein X4 of SARS-CoV Urbani [1] | Binding of Control Serum Blood-Bank to Looped peptides [3] | Binding of Control serum Blood-bank to linear peptides [3] | Binding of Control serum LUMC to linear peptides [3] | Binding of Control serum LUMC to looped peptides [3] | also measured
1 | KEPCPSGTYEGNSPF | 0.7 | 0.8 | 0.6 | 0.6 | 0.4 | 0.6 | 0.4 | 0.6 | 0.7 | 0.7 | 0.8 | 0.6 | 0.8 | 0.3 | 0.6 | 0.4 | 0.5 | 0.6 | 0.6 | 0.8 | Binding of serum SARS-yellow to linear peptides of protein X4 of SARS-CoV Urbani [1]: 0.7; Binding of serum SARS-yellow to looped/cyclic peptides of protein X4 of SARS-CoV Urbani [1]: 0.3; Rabbit serum linear peptides [2]: 0.4; Rabbit serum looped peptides [2]: 0.3
2 | KFALTCTSTHFAFAC | 0.8 | 1.0 | 0.6 | 0.7 | 0.5 | 0.9 | 0.8 | 0.7 | 0.8 | 0.7 | 0.8 | 0.9 | 0.8 | 0.4 | 0.4 | 0.8 | 0.9 | 0.7 | 0.7 | 0.8 | Binding of serum SARS-yellow to linear peptides of protein X4 of SARS-CoV Urbani [1]: 0.6; Binding of serum SARS-yellow to looped/cyclic peptides of protein X4 of SARS-CoV Urbani [1]: 0.8; Rabbit serum linear peptides [2]: 0.5; Rabbit serum looped peptides [2]: 0.6
3 | KFTTSLSLHKLLQTL |  |  |  |  |  |  |  |  |  |  |  |  |  |  |  |  | 0.5 | 0.6 | 0.4 | 0.5 | Binding of serum 1a to linear peptides of protein X2 [1]: 0.5; Binding of serum 1a to looped/cyclic peptides of protein X2 of SARS-CoV Urbani [1]: 0.5; Binding of serum 1b to linear peptides of protein X2 [1]: 0.4; Binding of serum 1b to looped/cyclic peptides of protein X2 of SARS-CoV Urbani [1]: 0.4; Binding of serum 2 to linear peptides of protein X2 [1]: 0.4; Binding of serum 2 to looped/cyclic peptides of protein X2 of SARS-CoV Urbani [1]: 0.5; Binding of serum 6 to linear peptides of protein X2 [1]: 0.6; Binding of serum 6 to looped/cyclic peptides of protein X2 of SARS-CoV Urbani [1]: 0.4; Binding of serum 37 to linear peptides of protein X2 [1]: 0.5; Binding of serum 37 to looped/cyclic peptides of protein X2 of SARS-CoV Urbani [1]: 0.5; Binding of serum 62 to linear peptides of protein X2 [1]: 0.6; Binding of serum 62 to looped/cyclic peptides of protein X2 of SARS-CoV Urbani [1]: 0.5; Binding of serum London to linear peptides of protein X2 [1]: 0.5; Binding of serum London to looped/cyclic peptides of protein X2 of SARS-CoV Urbani [1]: 0.6; Binding of serum SARS-green to linear peptides of protein X2 [1]: 0.4; Binding of serum SARS-green to looped/cyclic peptides of protein X2 of SARS-CoV Urbani [1]: 0.4; Binding of serum SARS-yellow to linear peptides of protein X2 [1]: 0.5; Binding of serum SARS-yellow to looped/cyclic peptides of protein X2 of SARS-CoV Urbani [1]: 0.3; Binding of a rabbit serum to linear peptides [2]: 0.2; Binding of a rabbit serum to looped peptides [2]: 0.4
4 | KGFQFICNLLLLFVT |  |  |  |  |  |  |  |  |  |  |  |  |  |  |  |  | 0.5 | 0.7 | 0.7 | 0.5 | Binding of serum 1a to linear peptides of protein X1 of SARS-CoV Urbani [1]: 0.6; Binding of serum 1a to looped/cyclic peptide (PEPSCAN-ELISA) [1]: 0.6; Binding of serum 1b to linear peptides of protein X1 of SARS-CoV Urbani [1]: 0.5; Binding of serum 1b to looped/cyclic peptide (PEPSCAN-ELISA) [1]: 0.4; Binding of serum 2 to linear peptides of protein X1 of SARS-CoV Urbani [1]: 0.6; Binding of serum 2 to looped/cyclic peptide (PEPSCAN-ELISA) [1]: 0.4; Binding of serum 6 to linear peptides of protein X1 of SARS-CoV Urbani [1]: 0.5; Binding of serum 6 to looped/cyclic peptide (PEPSCAN-ELISA) [1]: 1.0; Binding of serum 37 to linear peptides of protein X1 of SARS-CoV Urbani [1]: 0.6; Binding of serum 37 to looped/cyclic peptide (PEPSCAN-ELISA) [1]: 0.6; Binding of serum 62 to linear peptides of protein X1 of SARS-CoV Urbani [1]: 0.7; Binding of serum 62 to looped/cyclic peptide (PEPSCAN-ELISA) [1]: 0.6; Binding of serum London to linear peptides of protein X1 of SARS-CoV Urbani [1]: 0.3; Binding of serum London to looped/cyclic peptide (PEPSCAN-ELISA) [1]: 1.1; Binding of serum SARS-green to linear peptides of protein X1 of SARS-CoV Urbani [1]: 0.2; Binding of serum SARS-green to looped/cyclic peptide (PEPSCAN-ELISA) [1]: 0.4; Binding of serum SARS-yellow to linear peptides of protein X1 of SARS-CoV Urbani [1]: 0.6; Binding of serum SARS-yellow to looped/cyclic peptide (PEPSCAN-ELISA) [1]: 0.6; Binding of a rabbit serum to linear peptides [2]: 0.6; Binding of a rabbit serum to looped peptides [2]: 0.5
